Assay results published in ChEMBL document CHEMBL5233277, “Oxidative Metabolism as a Modulator of Kratom's Biological Actions” (J Med Chem, 2021).
The source made the active and inactive calls. The rule behind the calls is not given here.

Columns and labels:
Mus musculus [1] = experiment: Antinociceptive activity in sc dosed C57BL/6J mouse model assessed as peak effect measured at 20 mins by radiant heat tail flick assay; assay type: functional
Mus musculus [2] = experiment: Antinociceptive activity in po dosed C57BL/6J mouse model assessed as time required for peak effect at ED50 by radiant heat tail flick assay; assay type: functional
Mus musculus [3] = experiment: Antinociceptive activity in sc dosed C57BL/6J mouse model assessed as time required for peak effect at ED50 by radiant heat tail flick assay; assay type: functional
[4] = Drug metabolism in C57BL/6J mouse plasma assessed as mitragynine pseudoindoxyl formation at 30 mg/kg, po measured after 20 mins by LC-MS/MS analysis; assay type: ADME, organism-based; details: in vivo
[5] = Drug metabolism in C57BL/6J mouse brain assessed as mitragynine pseudoindoxyl formation at 30 mg/kg, po measured after 20 mins by LC-MS/MS analysis; assay type: ADME, organism-based; details: in vivo
[6] = Drug concentration in C57BL/6J mouse brain at 30 mg/kg, po measured after 20 mins by LC-MS/MS analysis; assay type: ADME, organism-based; details: read-out: Ct
[7] = Drug concentration in C57BL/6J mouse brain at 30 mg/kg, sc measured after 20 mins by LC-MS/MS analysis; assay type: ADME, organism-based; details: read-out: Ct
[8] = Stability in human liver microsomes assessed as half life at 1 uM incubated for 60 mins by LC-MS/MS analysis; assay type: ADME, Microsome; details: 1 h
[9] = Stability in 129Sv6 mouse liver microsomes assessed as half life at 1 uM incubated for 60 mins by LC-MS/MS analysis; assay type: ADME, Microsome; details: 1 h
Cytochrome P450 3A = Cytochrome P450 3A (Homo sapiens, UniProt P08684+P20815+Q9HB55+P24462); experiment: Metabolic stability in human liver microsomes assessed as CYP3A-mediated decomposition by measuring half life at 1 uM incubated for 60 mins in presence of ketoconazole by LC-MS/MS analysis; assay type: ADME, Microsome; details: 1 h
[10] = Drug metabolism in 129Sv6 mouse liver microsomes assessed as mitragynine pseudoindoxyl formation at 1 uM incubated for 60 mins by LC-MS/MS analysis; assay type: ADME, Microsome; details: 1 h
[11] = Drug metabolism in 129Sv6 mouse liver microsomes assessed as mitragynine pseudoindoxyl formation at 1 uM incubated for 60 mins in presence of ketoconazole by LC-MS/MS analysis; assay type: ADME, Microsome; details: 1 h
[12] = Drug metabolism in human liver microsomes assessed as mitragynine pseudoindoxyl formation at 1 uM incubated for 60 mins in presence of NADPH by LC-MS/MS analysis; assay type: ADME, Microsome; details: 1 h
[13] = Drug metabolism in human liver microsomes assessed as compound depletion at 1 uM incubated for 60 mins in absence of NADPH by LC-MS/MS analysis; assay type: ADME, Microsome; details: 1 h
[14] = Drug metabolism in human S9 fraction assessed as mitragynine pseudoindoxyl formation at 1 uM incubated for 60 mins in absence of NADPH by LC-MS/MS analysis; assay type: ADME, subcellular; details: s9, 1 h
[15] = Drug metabolism in 129Sv6 mouse liver microsomes assessed as 3-dehydromitragynine formation at 1 uM incubated for 60 mins by LC-MS/MS analysis; assay type: ADME, Microsome; details: 1 h
[16] = Drug metabolism in 129Sv6 mouse liver microsomes assessed as 3-dehydromitragynine formation at 1 uM incubated for 60 mins in presence of ketoconazole by LC-MS/MS analysis; assay type: ADME, Microsome; details: 1 h
[17] = Drug metabolism in C57BL/6J mouse liver microsomes assessed as 3-dehydromitragynine formation at 1 uM incubated for 60 mins in presence of ketoconazole by LC-MS/MS analysis; assay type: ADME, Microsome; details: 1 h
[18] = Drug metabolism in human S9 fractions assessed as 3-dehydromitragynine formation at 1 uM incubated for 60 mins in presence of NADPH by LC-MS/MS analysis; assay type: ADME, subcellular, S9 fraction; details: s9, 1 h
Mus musculus [19] = experiment: Antinociceptive activity in DOR knock out C57BL/6J mouse at 45 mg/kg, po measured after 20 mins; assay type: functional, organism-based

## CC[C@@H]1CN2CCc3c([nH]c4cccc(OC)c34)[C@@H]2C[C@@H]1/C(=C\OC)C(=O)OC
Mus musculus [1]
  ED50: 25.9 mg/kg
Mus musculus [2]
  Time: 15 min
Mus musculus [3]
  Time: 15 min
[4]
  Drug metabolism: 20 nM
[5]
  Drug metabolism: 40 nM
[6]
  concentration at 20 min: 6.63 µM
[7]
  concentration at 20 min: 9.74 µM
[8]
  t1/2: 7.5 min
[9]
  t1/2: 13.5 min
Cytochrome P450 3A
  t1/2: 37.4 min
[10]
  Drug metabolism: Metabolite_Detected
[11]
  Drug metabolism: Metabolite_Notdetected
[12]
  Drug metabolism: Metabolite_Detected
[13]
  Drug metabolism: Metabolite_Notdetected
[14]
  Drug metabolism: Metabolite_Notdetected
[15]
  Drug metabolism: Metabolite_Detected
[16]
  Drug metabolism: Metabolite_Detected
[17]
  Drug metabolism: Metabolite_Detected
[18]
  Drug metabolism: Metabolite_Detected
Mus musculus [19]
  Activity: Active
